Laboratory results taken from US20160287602A1, “METHODS FOR PROMOTING MOTOR NEURON SURVIVAL” (PRESIDENT AND FELLOWS OF HARVARD COLLEGE, priority 2013, published 2016).
“Also recorded” adds a separate entry of the source.

Experiments:
[1] = system: wild-type (Hb9::GFP) mouse ESC derived MNs; test: MN survival after trophic factor withdrawal, mixed culture; format: cell-based
Excerpt: In the present study, we have screened highly specific small molecule kinase inhibitors to identify those which could promote MN survival. For the screen, we generated MNs from wild-type (Hb9::GFP) and SOD1^G93A (SOD1^G93A/Hb9::GFP) mouse ESCs using published protocols (Di Giorgio et al., 2007). We withdrew trophic factors as a standard method to induce MN death. Cell plating density as well as timing for initiation and duration of trophic factor withdrawal were used exactly as published to achieve ˜80% MN death in 3 days (FIG. 1A) (Yang et al., 2013). […] We continued to work with this compound class as it reproducibly promoted survival of both MNs types and the effect was robust. We further reasoned that since this compound class promoted survival of both MN types, the probability of its working in other contexts such as on human MNs and in the ALS mouse model was maximum. […]
Trophic factors were removed and ZM447439 was added to the cultures as previously and MN survival was analyzed on day 7, 14 & 21.

[2] = system: FACS purified Hb9::GFP MNs; test: MN survival after trophic factor withdrawal, FACS purified MN culture; format: cell-based, mouse; conditions: FACS purified MN cultures, trophic factors withdrawn, FIG. 1C
Excerpt: ESC-derived MN culture achieves ˜30%-50% MN differentiation efficiency and is therefore highly heterogeneous. To examine whether AKIs specifically act in a cell-autonomous or non-cell-autonomous manner, we established a highly enriched MN culture through FACS purification based on Hb9::GFP reporter expression. […] Next, we asked whether AKIs exert their survival promoting effect only cell-autonomously or whether they also function non-cell-autonomously to rescue MN death. To address this question we produced astrocyte conditioned medium (ACM) by incubating primary murine astrocytes with AKIs (VX-680 and ZM447439). The ACM was then dialyzed using a dialyzer with pore size appropriate for eliminating residual AKIs.

Hb9::GFP MNs = test: Number of synapses per MN (synapsin/PSD-95 co-localization, automated imager); format: cell-based, mouse
Excerpt: (§1) To examine whether MNs kept alive by AKIs maintain morphological integrity we carried out a series of analyses on surviving MNs in the absence of trophic factors. […] We also used an automated imager to analyze the number of synapses per MN by counting co-localized regions positive for the presynaptic marker synapsin and the postsynaptic marker PSD-95.

SOD1^G93A/Hb9::GFP MNs = test: as above; format: cell-based, mouse
Excerpt: as §1

[3] = system: synaptophysin in Hb9::GFP MN cultures; test: Synaptophysin immunoblotting; format: cell-based, mouse
[4] = system: synaptophysin in SOD1^G93A/Hb9::GFP MN cultures; test: Synaptophysin immunoblotting; format: cell-based, mouse
FACS purified MNs = test: Area of MN cell bodies in astrocyte co-culture; format: cell-based, mouse
Protocol: We sought to examine whether AKIs decrease the toxic effect of SOD1^G93A mutant astrocytes. We first cultured primary astrocytes from wild type (WT) and SOD1^G93A mice and plated FACS purified MNs on top. We observed significant cell death when MNs were cultured on mutated astrocytes compared to WT astrocytes. ZM447439 improved both Hb9::GFP and SOD1^G93A/Hb9::GFP MN survival.

[5] = system: phosphorylated BAD (pBAD); test: Phosphorylated BAD immunostaining in surviving MNs; format: cell-based, mouse; conditions: absence of TFs
[6] = system: Hb9::GFP and SOD1^G93A/Hb9::GFP MNs; test: Microarray analysis of gene expression in MNs; format: cell-based, mouse; conditions: compound in the absence of TFs versus -TF
Excerpt: Next we sought to investigate the mechanism by which AKIs promote MN survival. To evaluate this comprehensively we performed microarray analysis to compare gene expression between MNs cultured with: 1) Trophic factors (+TF), 2) No trophic factors (−TF), 3) VX-680 in the absence of TFs, and 4) ZM447439 in the absence of TFs. […] Gene expression was compared between +TF and −TF, VX-680 and −TF, and ZM447439 and −TF. With a cut off of more than 3 fold difference, there were 85 genes overlapping in all three comparison in Hb9::GFP MNs and 57 in SOD1^G93A/Hb9::GFP MNs. We found 39 overlapping genes when we compared both types of MNs (FIG. 5B). […] We analyzed the shortlist of 39 genes by using DAVID functional annotation bioinformatics microarray analysis software to find the potential pathways involved in MN survival. […] PKA is known to phosphorylate BAD protein, leading to increased cell survival (Jose M. LIZCANO et al., 2000; Julian Downward et al., Nature cell biology 1999; Komaki S et al., Neurosci Lett 2012). […] We further investigated this pathway by lentivirus knockdown of Prkarlb.

[7] = system: HuES-3/Hb9::GFP human ESC derived MNs; test: Human ESC derived MN survival after trophic factor withdrawal; format: cell-based; conditions: trophic factors withdrawn
Excerpt: We generated MNs from a human ESC line expressing an HB9::GFP transgene [HuES-3/Hb9::GFP (Di Giorgio et al., 2008)]. Human ESC derived MN cultures were pre-treated with AraC to eliminate progenitor cells. We induced MN death by again withdrawing trophic factors. […] We also investigated the toxic effect of SOD1^G93A astrocytes on human ESC derived MN survival. We found significant death of human MNs cultured on mutant astrocytes.

[8] = system: wild-type (Hb9::GFP) mouse ESC derived MNs; test: MN survival after trophic factor withdrawal, mixed culture; format: cell-based; conditions: in presence of neurotrophic factors; day 7, 14 & 21

With `COc1cc2c(Nc3ccc(NC(=O)c4ccccc4)cc3)ncnc2cc1OCCCN1CCOCC1` [ZM447439, N-[4-[[6-Methoxy-7-[3-(4-morpholinyl)propoxy]-4-quinazolinyl]amino]phenyl]benzamide] the “survival effect in dose dependent assay, comparison among AKIs” value ([1]; mixed MN culture, FIG. 1B) was “most effective and potent in promoting MN survival; also recorded: most effective and potent of all AKIs assayed”, the “survival of MNs (number of surviving MNs)” value ([1]; trophic factor withdrawal, 3 days, wild-type Hb9::GFP MNs) was “consistently increased the survival of MNs; also recorded: most potent and robust at increasing survival” and the “long term MN survival” value ([1]; trophic factors removed, day 7, 14 & 21, Hb9::GFP MNs) was “increased survival”. The MN survival [2] was “rescued MN survival in a dose dependent fashion”, the “number of synapses per MN” value (Hb9::GFP MNs; absence of trophic factors, Hb9::GFP MNs) was “preserved the number of synapses” and the “number of synapses per MN” value (Hb9::GFP MNs; neurotrophin containing medium) was “increased the number of synapses per MN”. The “number of synapses per MN” value (SOD1^G93A/Hb9::GFP MNs; absence of trophic factors, SOD1^G93A/Hb9::GFP MNs) was “preserved the number of synapses”, the “number of synapses per MN” value (SOD1^G93A/Hb9::GFP MNs; neurotrophin containing medium) was “increased the number of synapses per MN” and the “expression of synaptic protein synaptophysin” value [3] was “increased expression”. For the same molecule, the “expression of synaptic protein synaptophysin” value [4] was “increased expression”, the “area of MN cell bodies” value (FACS purified MNs) was “increased” and the “levels of phosphorylated BAD (pBAD)” value [5] was “increased levels”. The “expression of genes related to synapse formation (Syt1, Snap25 and Sv2c, Map2 and Dcx)” value [6] was “upregulated”, the “human MN survival, comparison of VX-680 and ZM447439” value ([7]; FIG. 7A) was “more effective and potent in preventing MN death” and the “human MN survival” value ([7]; AraC pre-treated cultures) was “rescued human MN death”. The “basal MN death” value [8] was “prevented”.
